We go through two compounds from ChEMBL document CHEMBL4028869, “Synthesis and Bioevaluation of Macrocycle-Polyamine Conjugates as Cell Migration Inhibitors” (J Med Chem, 2017).

Data set [1] can be described thus: Antimigratory activity against human L3.6p1 cells at 1 uM after 24 hrs in presence of amine oxidase inhibitor aminoguanidine by scratch assay relative to control. The data set is classed as functional. The settings on record: L3.6p1, 24 h.
A short description of data set [2]: Substrate activity at PTS in CHO cells assessed as reduction in cell viability after 48 hrs in presence of aminoguanidine by MTS assay. The settings on record: Cricetulus griseus. The data set is classed as cell-based.
A short description of data set [3]: Solubility in water. The data set is classed as physicochemical. As to conditions: buffer.
Data set [4] in a line: Antiproliferative activity against human L3.6p1 cells after 48 hrs in presence of amine oxidase inhibitor aminoguanidine by MTS assay. The data set is classed as functional, cell-based. As to conditions: for IC50: Homo sapiens, L3.6p1, 48 h.
Data set [5] deals with CHO-MG. Put plainly: Cytotoxicity against CHO-MG cells assessed as reduction in cell viability after 48 hrs in presence of aminoguanidine by MTS assay. The data set is classed as cell-based. As to conditions: Cricetulus griseus.
Data set [6] can be described thus: Modulation of sphingomyelin pool in human L3.6p1 cells assessed as N25:0 level per mg protein at 500 nM after 48 hrs (reference value: 0.01 nmol). The data set is classed as functional.
Data set [7] in a line: Modulation of sphingomyelin pool in human L3.6p1 cells assessed as N26:1 level per mg protein at 500 nM after 48 hrs (reference value: 0.02 nmol). The data set is classed as functional.
The nature of data set [8]: Modulation of sphingomyelin pool in human L3.6p1 cells assessed as N22:2 level per mg protein at 500 nM after 48 hrs (reference value: 0.01 nmol). The data set is classed as functional.
The nature of data set [9]: Modulation of ceramide pool in human L3.6p1 cells assessed as N24:0 level per mg protein at 500 nM after 48 hrs (reference value: 0.16 +/- 0.04 nmol). The data set is classed as functional.
A short description of data set [10]: Modulation of sphingomyelin pool in human L3.6p1 cells assessed as N23:2 level per mg protein at 500 nM after 48 hrs (reference value: 0.01 nmol). The data set is classed as functional.
Data set [11] in a line: Modulation of sphingomyelin pool in human L3.6p1 cells assessed as N25:1 level per mg protein at 500 nM after 48 hrs (reference value: 0.02 +/- 0.01 nmol). The data set is classed as functional.
Data set [12] in a line: Selectivity ratio of IC50 for CHO-MG cells to IC50 for PTS in CHO cells. Further details: species or system Cricetulus griseus.
Data set [13] can be described thus: Modulation of sphingomyelin pool in human L3.6p1 cells assessed as N24:1 level per mg protein at 500 nM after 48 hrs (reference value: 1.07 +/- 0.03 nmol). The data set is classed as functional.
Data set [14] can be described thus: Modulation of sphingomyelin pool in human L3.6p1 cells assessed as N20:1 level per mg protein at 500 nM after 48 hrs (reference value: 0.02 nmol). The data set is classed as functional.
Data set [15] in a line: Modulation of sphingomyelin pool in human L3.6p1 cells assessed as N19:0 level per mg protein at 500 nM after 48 hrs (reference value: 0.01 nmol). The data set is classed as functional.
A short description of data set [16]: Modulation of sphingomyelin pool in human L3.6p1 cells assessed as N14:0 level per mg protein at 500 nM after 48 hrs (reference value: 0.13 +/- 0.01 nmol). The data set is classed as functional.
The nature of data set [17]: Antimigratory activity against human L3.6p1 cells at 0.5 uM after 24 hrs in presence of amine oxidase inhibitor aminoguanidine by scratch assay relative to control. The data set is classed as functional. The settings on record: L3.6p1, 24 h.
Data set [18] can be described thus: Modulation of sphingomyelin pool in human L3.6p1 cells assessed as N15:0 level per mg protein at 500 nM after 48 hrs (reference value: 0.12 nmol). The data set is classed as functional.
A short description of data set [19]: Modulation of ceramide pool in human L3.6p1 cells assessed as N24:1 level per mg protein at 500 nM after 48 hrs (reference value: 0.37 +/- 0.06 nmol). The data set is classed as functional.
The nature of data set [20]: Modulation of sphingomyelin pool in human L3.6p1 cells assessed as N17:0 level per mg protein at 500 nM after 48 hrs (reference value: 0.05 +/- 0.01 nmol). The data set is classed as functional.
Data set [21] can be described thus: Modulation of sphingomyelin pool in human L3.6p1 cells assessed as N16:1 level per mg protein at 500 nM after 48 hrs (reference value: 0.28 +/- 0.01 nmol). The data set is classed as functional.
The species named for data set [22] is Mus musculus. Put plainly: Increase in SGMS activity in mouse PancO2 cell lysates assessed as induction of NBD-sphingomyelin production at 1 uM using C12-NBD-ceramide substrate after 72 hrs by TLC relative to control.
Data set [23] in a line: Modulation of sphingomyelin pool in human L3.6p1 cells assessed as N24:0 level per mg protein at 500 nM after 48 hrs (reference value: 0.32 +/- 0.01 nmol). The data set is classed as functional.
Data set [24] is described as follows: Modulation of sphingomyelin pool in human L3.6p1 cells assessed as N23:1 level per mg protein at 500 nM after 48 hrs (reference value: 0.10 nmol). The data set is classed as functional.
Data set [25] in a line: Modulation of sphingomyelin pool in human L3.6p1 cells assessed as N21:0 level per mg protein at 500 nM after 48 hrs (reference value: 0.03 nmol). The data set is classed as functional.
Data set [26] can be described thus: Modulation of sphingomyelin pool in human L3.6p1 cells assessed as N22:1 level per mg protein at 500 nM after 48 hrs (reference value: 0.17 +/- 0.01 nmol). The data set is classed as functional.
The nature of data set [27]: Modulation of sphingomyelin pool in human L3.6p1 cells assessed as N18:1 level per mg protein at 500 nM after 48 hrs (reference value: 0.07 nmol). The data set is classed as functional.
A short description of data set [28]: Modulation of sphingomyelin pool in human L3.6p1 cells assessed as N24:2 level per mg protein at 500 nM after 48 hrs (reference value: 0.30 +/- 0.01 nmol). The data set is classed as functional.
The nature of data set [29]: Modulation of sphingomyelin pool in human L3.6p1 cells assessed as N20:0 level per mg protein at 500 nM after 48 hrs (reference value: 0.06 +/- 0.01 nmol). The data set is classed as functional.
Data set [30] is filed under the species Mus musculus. Kind of data set: Increase in SGMS activity in mouse PancO2 cell lysates assessed as induction of NBD-sphingomyelin production at 0.5 uM using C12-NBD-ceramide substrate after 72 hrs by TLC relative to control.
Data set [31] is described as follows: Modulation of sphingomyelin pool in human L3.6p1 cells assessed as N23:0 level per mg protein at 500 nM after 48 hrs (reference value: 0.07 nmol). The data set is classed as functional.
Data set [32] in a line: Modulation of sphingomyelin pool in human L3.6p1 cells assessed as N18:0 level per mg protein at 500 nM after 48 hrs (reference value: 0.19 +/- 0.01 nmol). The data set is classed as functional.
Data set [33] is described as follows: Modulation of ceramide pool in human L3.6p1 cells assessed as total ceramide level per mg protein at 500 nM after 48 hrs (reference value: 0.62 +/- 0.10 nmol). The data set is classed as functional.
Data set [34] in a line: Modulation of sphingomyelin pool in human L3.6p1 cells assessed as N22:0 level per mg protein at 500 nM after 48 hrs (reference value: 0.23 +/- 0.01 nmol). The data set is classed as functional.
Data set [35] can be described thus: Modulation of sphingomyelin pool in human L3.6p1 cells assessed as N16:0 level per mg protein at 500 nM after 48 hrs (reference value: 2.60 +/- 0.06 nmol). The data set is classed as functional.
Data set [36] in a line: Modulation of ceramide pool in human L3.6p1 cells assessed as N16:0 level per mg protein at 500 nM after 48 hrs (reference value: 0.08 +/- 0.01 nmol). The data set is classed as functional.
Data set [37] can be described thus: Modulation of sphingomyelin pool in human L3.6p1 cells assessed as total sphingomyelin level per mg protein at 500 nM after 48 hrs (reference value: 5.91 +/- 0.11 nmol). The data set is classed as functional.

The structures appear in SMILES notation.

As to `OCC1CCCCCCCCCCCCCC1`, the inhibition at 1 µM in [1] was -37.2%. For the same compound, the IC50 in data set [2] is greater than 100 µM; in [4], 42 µM; in data set [5] it was greater than 100 µM. Besides, in data set [3], the solubility entry was “Insoluble”. Moreover, the IC5 in data set [4] came to 8.4 µM.

In the case of `Cl.Cl.Cl.NCCCNCCCNCC1CCCCCCCCCCCCCC1`, the Activity in data set [6] is on record as 0.02 nmol; in [7], 0.03 nmol; in [8], 0.02 nmol; in [9] it was 0.14 nmol; in data set [10] it was 0.01 nmol; in [11] it was 0.03 nmol. Moreover, the Activity is reported as 1.22 nmol in [13]; 0.03 nmol in [14]; 0.01 nmol in data set [15]; 0.13 nmol in [16]; 0.13 nmol in [18]; 0.37 nmol in data set [19]. In addition, the Activity is 0.06 nmol in [20]; 0.3 nmol in data set [21]; 97% in [22]; 0.36 nmol in data set [23]; 0.12 nmol in data set [24]; 0.04 nmol in [25]. In addition, the Activity was determined as 0.22 nmol in [26]; 0.1 nmol in [27]; 0.36 nmol in data set [28]; 0.09 nmol in [29]; 88% in [30]; 0.09 nmol in [31]. For the same compound, the Activity in data set [32] was found to be 0.27 nmol; in data set [33] it was 0.63 nmol; in data set [34], 0.31 nmol; in data set [35], 2.84 nmol; in [36] it was 0.11 nmol; in data set [37] it was 6.79 nmol. In addition, in [12], the “Ratio IC50” value amounted to 1. The inhibition at 1 µM in data set [1] was determined as 29.9%. The inhibition at 0.5 µM in data set [17] was determined as 20.2%. In data set [4], the IC5 came to 80 µM. Also, the IC50 in data set [4] was found to be 89.4 µM.
